Earlier results, collected in patent US5112837A, “Quinoline derivatives having anti-tumor activity” (Imperial Chemical Industries PLC, priority 1987, dated 1992).

Columns and labels:
[1] = tested on: human breast, ovarian and liver cancer; settings: clinical trials
[2] = literature references

## C#CCN(Cc1ccc2nc(N)[nH]c(=O)c2c1)c1ccc(C(=O)N[C@@H](CCC(=O)O)C(=O)O)cc1 [CB3717]
[1]
  activity against human cancer: promising activity against human breast, ovarian and liver cancer
[2]
  symptoms of toxicity in humans: symptoms of toxicity in humans, particularly in relation to the liver and kidney
